According to PubChem BioAssay AID1918940 (Molecular Pharmacology Branch, DTP, NCI, 2023):
“And” between values parts separate entries of the source, which are not always exact repeats. Identical values can stand only once.

System: NCI-H211 complex spheroid viability
Experiment: Anticancer human tumor NCI-H211 cell line growth inhibition [LSD1];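 further: luminescent viability read after seven days of drug exposure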
Settings: for viability, T/C: stronger effect = lower value; active means viability on the fitted dose curve at most 10% of control; inactive means the rest
Description: Multicellular complex tumor spheroid response to LSD1 Inhibitor Iadademstat in combination with a variety of drugs and investigational agents in selected tumor cell lines
The current study was undertaken to assess response to LSD1 inhibitors in combination with standard-of-care drugs and investigational agents in solid tumor complex spheroid models as well as in the K-562 leukemia. Complex spheroids include a stromal component modeled by human endothelial cells (HUVEC) and fibroblasts modeled by human mesenchymal stem cells (MSCs). The concentration ranges selected for each drug and investigational agent were based upon clinically achievable concentrations if the clinical Cmax of the agent was known.
Compounds. The drugs and investigational agents used in this study are listed on Table 1. All of the agents used, including staurosporine (NSC755774) and gemcitabine (NSC613327), were obtained from the Developmental Therapeutics Program, NCI. FDA-approved anticancer drugs are available from the NCI at http://dtp.nci.nih.gov/branches/dscb/oncology_drugset_explanation.html. Drugs and investigational agents were >95% pure by proton nuclear magnetic resonance (NMR) and liquid chromatography/mass spectrometry (LC/MS). Stock solutions were prepared at 400x in DMSO, stored at -70 degrees C, and diluted in fresh medium prior to their use. The final concentration of DMSO in cell culture wells never exceeded 0.25% (v/v). The FDA-approved anticancer drug set is available from the Developmental Therapeutics Program at https://dtp.cancer.gov/organization/dscb/obtaining/available_plates.htm. All drugs and investigational agents were tested over a range starting from a high concentration at or near the clinical Cmax and decreasing in half-log increments. If the clinical Cmax for an agent had not been determined, the highest concentration tested was 10 microM.
Cell Lines. The patient-derived cancer cell (PDC) lines: 292921-168-R-J2-PDC, K24384-001-R-PDC, and 521955-158-R2-J5-PDC pancreatic carcinomas, 556581-035-R-J1 ovarian carcinoma, 324938-238-R-J1-PDC, 855422-203-R-J1-PDC and 883617-216-R-J1-PDC urothelial bladder carcinomas, 743489-274-T-PDC renal cell carcinoma, 138582-R-J1 Merkel cell tumor, K60290-347-R-J1 and K57222-313-R-J1-PDC glioblastomas, 653999-131-R-J2-PDC, LG0703-F948-PDC, and 349418-098-R-PDC non-small cell lung carcinomas, 885512-296-R-J2-PDC, 171881-019-R-J1-PDC breast carcinomas and 186277-243-T-J2-PDC and 233499-124-R-J2-PDC colon carcinomas were obtained from the NCI Patient-Derived Models Repository (PDMR, https://pdmr.cancer.gov). The established cell lines NCI/ADR-RES (RRID:CVCL_14520 and OVCAR-5 (RRID:CVCL_1628) ovarian carcinomas, 786-O (RRID:CVCL_1051) and A498 (RRID:CVCL_A498) renal cell carcinoma, NCI-H211 (ATCC, cat. CRL-5824; RRID:CVCL_1529), NCI-H196 (ATCC, cat. CRL-5823, RRID:CVCL_1509), SW 1271 (ATCC, cat. CRL-2177, RRID:CVCL_1716) and NCI-H1876 (ATCC, cat. CRL-5902, RRID:CVCL_1503) small cell lung carcinomas, MDA-MB-231 (RRID:CVCL_0062) and MDA-MB-468 (RRID:CVCL_0419)breast carcinomas (10-12). Pooled donor human umbilical vein endothelial cells (HUVEC, Lonza, cat. CC-2519) and human mesenchymal stem cells (hMSC, Lonza, cat. PT-2501) were purchased from Lonza (Walkersville, MD).
Cell Culture. All cells were maintained in an incubator at 37 degrees C and 5% CO2 with 95% humidity. The PDC lines were cultured according to standard operating procedures established by the NCI PDMR (https://pdmr.cancer.gov). Briefly all PDCs were thawed and cultured in Matrigel-coated flasks prepared with a working solution of 1X Ham's F-12 nutrient mix, without supplementation (Invitrogen, Waltham, MA, cat. 11765054), 100 U/mL penicillin-streptomycin (Invitrogen, cat. 15140122), and 2.5% Matrigel (Corning Inc., Corning, NY, cat. 354248) for the first three passages. […]

[1] = curve of first compound, second compound 0.1 µM
[2] = curve of first compound, second compound 0.316 µM
[3] = curve of first compound, second compound 1 µM
[4] = curve of first compound, second compound 3.16 µM
[5] = curve of first compound, second compound 10 µM

Nc1ccn(C2OC(CO)C(O)C2(F)F)c(=O)n1 (configuration not stated) + NC1CC1c1ccc(-c2cccc(O)c2)cc1
< 0.949 nM: IC50 [1] | IC50 [2] | IC50 [3] | IC50 [4] | IC50 [5]
active: viability, T/C (second compound 0.1 µM, first compound 0.000949 µM) 4.79% | viability, T/C (second compound 0.1 µM, first compound 0.003 µM) 3.12% | viability, T/C (second compound 0.1 µM, first compound 0.00949 µM) 3.86% | viability, T/C (second compound 0.1 µM, first compound 0.03 µM) 4.15% | viability, T/C (second compound 0.1 µM, first compound 0.0949 µM) 4.2% | viability, T/C (second compound 0.1 µM, first compound 0.3 µM) 3.74% | viability, T/C (second compound 0.316 µM, first compound 0.000949 µM) 3.95% | viability, T/C (second compound 0.316 µM, first compound 0.003 µM) 4.1% | viability, T/C (second compound 0.316 µM, first compound 0.00949 µM) 4.15% | viability, T/C (second compound 0.316 µM, first compound 0.03 µM) 3.65% | viability, T/C (second compound 0.316 µM, first compound 0.0949 µM) 3.64% | viability, T/C (second compound 0.316 µM, first compound 0.3 µM) 3.81% | viability, T/C (second compound 1 µM, first compound 0.000949 µM) 3.83% | viability, T/C (second compound 1 µM, first compound 0.003 µM) 4.15% | viability, T/C (second compound 1 µM, first compound 0.00949 µM) 4.41% | viability, T/C (second compound 1 µM, first compound 0.03 µM) 3.58% | viability, T/C (second compound 1 µM, first compound 0.0949 µM) 3.35% | viability, T/C (second compound 1 µM, first compound 0.3 µM) 4.53% | viability, T/C (second compound 3.16 µM, first compound 0.000949 µM) 5.21% | viability, T/C (second compound 3.16 µM, first compound 0.003 µM) 4.54% | viability, T/C (second compound 3.16 µM, first compound 0.00949 µM) 4.13% | viability, T/C (second compound 3.16 µM, first compound 0.03 µM) 4.09% | viability, T/C (second compound 3.16 µM, first compound 0.0949 µM) 3.28% | viability, T/C (second compound 3.16 µM, first compound 0.3 µM) 4.65% | viability, T/C (second compound 10 µM, first compound 0.000949 µM) 4.67% | viability, T/C (second compound 10 µM, first compound 0.003 µM) 4.95% | viability, T/C (second compound 10 µM, first compound 0.00949 µM) 4.53% | viability, T/C (second compound 10 µM, first compound 0.03 µM) 5.27% | viability, T/C (second compound 10 µM, first compound 0.0949 µM) 3.89% | viability, T/C (second compound 10 µM, first compound 0.3 µM) 4.22%

Nc1ncn(C2CC(O)C(CO)O2)c(=O)n1 (configuration not stated) + NC1CCC(NC2CC2c2ccccc2)CC1
active: viability, T/C (second compound 0.1 µM, first compound 0.0316 µM) 7.44% | viability, T/C (second compound 0.1 µM, first compound 0.1 µM) 3.11% | viability, T/C (second compound 0.1 µM, first compound 0.316 µM) 1.96% | viability, T/C (second compound 0.1 µM, first compound 1 µM) 1.81% | viability, T/C (second compound 0.316 µM, first compound 0.0316 µM) 9.7% | viability, T/C (second compound 0.316 µM, first compound 0.1 µM) 2.44% | viability, T/C (second compound 0.316 µM, first compound 0.316 µM) 1.9% | viability, T/C (second compound 0.316 µM, first compound 1 µM) 1.78% | viability, T/C (second compound 1 µM, first compound 0.0316 µM) 7.52% | viability, T/C (second compound 1 µM, first compound 0.1 µM) 3.4% | viability, T/C (second compound 1 µM, first compound 0.316 µM) 1.88% | viability, T/C (second compound 1 µM, first compound 1 µM) 1.32% | viability, T/C (second compound 3.16 µM, first compound 0.0316 µM) 6.93% | viability, T/C (second compound 3.16 µM, first compound 0.1 µM) 2.47% | viability, T/C (second compound 3.16 µM, first compound 0.316 µM) 1.82% | viability, T/C (second compound 3.16 µM, first compound 1 µM) 1.39% | viability, T/C (second compound 10 µM, first compound 0.01 µM) 5.2% | viability, T/C (second compound 10 µM, first compound 0.0316 µM) 2.56% | viability, T/C (second compound 10 µM, first compound 0.1 µM) 0.89% | viability, T/C (second compound 10 µM, first compound 0.316 µM) 0.77% | viability, T/C (second compound 10 µM, first compound 1 µM) 0.61%
inactive: viability, T/C (second compound 0.1 µM, first compound 0.00316 µM) 26.7% | viability, T/C (second compound 0.1 µM, first compound 0.01 µM) 17.8% | viability, T/C (second compound 0.316 µM, first compound 0.00316 µM) 35% | viability, T/C (second compound 0.316 µM, first compound 0.01 µM) 16% | viability, T/C (second compound 1 µM, first compound 0.00316 µM) 33% | viability, T/C (second compound 1 µM, first compound 0.01 µM) 16.2% | viability, T/C (second compound 3.16 µM, first compound 0.00316 µM) 29.3% | viability, T/C (second compound 3.16 µM, first compound 0.01 µM) 17.8% | viability, T/C (second compound 10 µM, first compound 0.00316 µM) 11.7%
< 3.16 nM: IC50 [1] | IC50 [2] | IC50 [3] | IC50 [4] | IC50 [5]

Nc1ccccc1NC(=O)c1ccc(CNC(=O)OCc2cccnc2)cc1
active: viability, T/C (compound 0.0949 µM) 5.07% and 4.05% | viability, T/C (compound 0.3 µM) 1.34% and 3.99% | viability, T/C (compound 0.949 µM) 0.93% and 2.1% | viability, T/C (compound 3 µM) 0.2% and 0.22%
31.3 nM and 22.1 nM: IC50 (curve of compound)
inactive: viability, T/C (compound 0.00949 µM) 106% and 110% | viability, T/C (compound 0.03 µM) 51.8% and 28.6%
